Experimental data from patent US6406679B1, “Use of HL-60-related lectins in drug delivery and detection of lectin-expressing cells” (Incyte Pharmaceuticals, Inc., priority 1992, dated 2002).
Values joined by “and” are separate entries in the source; they are usually repeats but may differ in a detail not shown here. Identical values can stand only once.

How the values were obtained:
lymph node cells = assay: Proliferative response of draining lymph node cells of GPBP/CFA-injected rats; format: in vivo, rat
Description: At the indicated times after injection of 50 μg GPBP/CFA, lymph nodes draining the site of injection were collected and tested for a proliferative response to GPBP, purified protein derivative (PPD), and the T-cell mitogen, Concanavalin A (ConA). Consistent with the DTH test, lymph node cells of the lectin-treated rats had low or absent responses to both GPBP and PPD relative to control rats, especially on days 14 and 21 during which EAE onset occurs.

Lewis rats [1] = assay: Skin allografts (Brown Norway skin on Lewis rats); format: in vivo, rat; parameters: key to Hair Growth / Hair Growth, Mean + SD column: whether or not (+ or −) hair growth was restored in the tissue; whether or not (+ or −) hair growth was restored in the tissue
Description: The work in this report was done in the laboratory of Drs. Arthur Vandenbark and Halina Offner at the Oregon VA Medical Center. Brown Norway rat skin was transplanted onto the back of Lewis rats. Identical grafts were done on both sides of each animal's back and the results of each side (separated by commas) were shown for each parameter in Tables 9 and 10. […] A 250 μg/animal dose of lectin was administered i.v. daily on days 2-17.
The protocols for the studies reported in Tables 9 and 10 differed only in that the lectin was delivered for four additional days up to day 21 (see Table 10).

[2] = test system: Jurkat T-cells on inflamed rat brain vascular endothelium; assay: Binding to inflamed brain endothelium sections; format: cell-based, human; settings: 250 μg/ml lectin
[3] = Antibodies specific for the lectin in sera of treated rats (ELISA); format: in vivo, rat
BALB/c and C57B/6 mice = assay: Experimental autoimmune myasthenia gravis (EAMG): clinical signs of neuromuscular dysfunction; format: in vivo, mouse
Source text: Experimental autoimmune myasthenia gravis (EAMG) is an antibody-mediated autoimmune disease responding to acetylcholine receptors (AChR). This condition in mice is a recognized model for studying the effects of the autoimmune response on neuromuscular transmission (Levi, G. et al., Eur. J. Immunol. (1983) 13:500-507; Lefvert, A. K. et al., Scand. J. Immunol. (1978) 8:525; Lefvert, A. K. et al., J. Neuro. Immunol. (1985) 9:41; Lefvert, A. K. et al., Eur. J. Immunol. (1982) 12:790). It appears that myasthenia gravis is mediated by T helper cells, which produce acetylcholine receptor antibodies. The disease is induced in mice by injection of acetylcholine receptor. The acetylcholine receptor is obtained from the electric organ of the ray Torpedo marmorata and purified by affinity chromatography on Naja naja siamensis neurotoxin crosslinked to Sephadex.
Young adult female BALB/c and C57B/6 mice (2-4 months of age) were used because they differ in EAMG susceptibility. The mice were injected subcutaneously with 10 μg of purified acetylcholine receptor, in Freund's complete adjuvant without and with the 14 kD-β-gal lectin.
Blood was obtained after 3 days and after 1, 2, 3 and 4 weeks. To follow the development of the disease, the mice were observed daily for signs of neuromuscular dysfunction and after 10 days subjected to forced exercise using repetitive grasping, swimming and inverted hang. These exercises were repeated after warming under a heat lamp at 35° C. for 5 min.

Lewis rats [4] = assay: Rat heart transplantation (Brown Norway into Lewis); format: in vivo; settings: for Onset of Rejection: d − 3 to d + 9, heart allograft
Description: The studies reported here relate to Brown Norway rat tissue transplanted into Lewis rats. This model, a highly histo-incompatible donor/recipient pair, provides a very stringent test with predictive value in human transplantation. Known general immunosuppressive agents show immunosuppressive activity in these models. Several forums of this model are used in the studies reported here.
These studies were performed in the laboratory of Dr. Randy Morris of Stanford University. Whole rat hearts were grafted into host rats which were examined daily thereafter for signs of rejection.
A control group comprised twelve recipients treated daily i.v. only with buffer control. The graft survival times were: 6d (x4), 7d (x7), and 8d, giving a mean survival of […]+/−0.6d (SD). The final day of survival is defined as the day on which the donor heart ceased to contract as assessed by lack of obvious palpitations and as confirmed by direct visualization at laparotomy.
Five recipients were treated with the recombinant lectin. All animals were pretreated with 1 mg/kg i.v. lectin on days −3, −2 and −1. The first two animals were then treated postoperatively with 1 mg/kg/d i.v. with lectin from day 1 until graft rejection. The second three animals were treated in the postoperative period from day 1 until graft rejection with 2 mg/kg/d i.v. of lectin. Graft survivals were 9 and 10d for the first group of rats, and 9, 10 and 11d for the second group. No dramatic increase in survival was seen by doubling the dose of lectin in group two in the postoperative period. Therefore, graft survival times of both groups were combined for statistical analysis. When graft survival was analyzed, lectin treatment produced a mean graft survival of 9.8+/−0.84d (SD), +/−0.38d (SEM) with a 95% confidence limit. Using the one-tailed Mann-Whitney U-test to compare the differences between the graft survival times for the saline and lectin-treated groups, a P value of 0.00096 was obtained.

[5] = test system: T-cell lines MOLT4 and ARR on thymic epithelial cells; assay: Binding of cultured T-cells to thymic epithelial cells (DPM); format: cell-based, human; settings: lectin-treated T-cells with terminal galactose residues, FIG. 4
Description: The effects of the lectin on the binding of cultured T-cells to thymic epithelial cells were further tested according to the protocol of Singer et al., (Proc. Natl. Acad. Sci. (1986) 83:6588-92). T-cell lines MOLT4 and ARR (a T-cell line with sialic-acid-terminating glycoproteins) were incubated with tritiated thymidine. Next, the cells were treated with neuraminidase (which cleaves terminal sialic acids from the glycoproteins on ARR cells and leaves terminal galactose), galactosidase, endolactosaminidase or no enzyme. After this step, they cells were incubated with and without lectin. All the treatment and control groups of T-cells were layered over thymic epithelial cells, incubated and washed as described in Singer et al. Lastly, the amount of bound T-cells was quantitated by […] per minute (DPM).

[6] = Day 2 to Day 17, individual animals, first-listed graft side, listed as rIML-1
[7] = Day 2 to Day 17, individual animals, second-listed graft side, listed as rIML-1
[8] = Day 2 to Day 21, individual animals, first-listed graft side, listed as rIML-1
[9] = Day 2 to Day 21, individual animals, second-listed graft side, listed as rIML-1

## Lectin: Soluble 14 kD β-galactoside-binding HL-60/placenta lectin of FIG. 1 (SEQ ID NO:2), prepared recombinantly in E. coli
Lymph node cells; lectin-treated rats relative to control, especially days 14 and 21, FIG. 12
  lymph node cell proliferative responses to GPBP and PPD: low or absent
Lymph node cells; lectin-treated rats, FIG. 12
  lymph node cell responses to ConA: normal or augmented
Lewis rats [1]; 250 μg/animal i.v. daily days 2-17, versus control
  delay of rejection of the grafts: 7 days
Lewis rats [1]; Day 2 to Day 17
  Rejection (on day), Mean ± SD: 17 ± 2 days
Lewis rats [1]; [6]
  Degeneration (on day): 15 day and 11, day and 14 day
  Hair Growth: +, + (3×) and − and +
  Rejection (on day): 16 day and 13, day and 16, day and 18, day (2×)
Lewis rats [1]; [7]
  Degeneration (on day): 16 day (2×) and 13 day
  Hair Growth: +, + (3×) and +
  Rejection (on day): 17 day and 15 day and 16 day and 18 day (2×)
Lewis rats [1]; Day 2 to Day 17, individual animals, listed as rIML-1
  Histology: 0
Lewis rats [1]; Day 2 to Day 21
  Degeneration (on day), Mean + SD: 17 ± 2 days
  Hair Growth, Mean + SD column: +
  Rejection (on day), Mean + SD: 19 ± 2 days
Lewis rats [1]; [8]
  Degeneration (on day): 15 day (3×) and 18, 18 day and 17 day and 18 day
  Hair Growth: +, + (5×) and −
  Rejection (on day): 18 day (2×) and 19, 19 day and 21, 21 day and 17 day and 19 day
Lewis rats [1]; [9]
  Degeneration (on day): 19 day (3×) and 18 day and 18, 18 day and 11 day
  Hair Growth: +, + (5×) and +
  Rejection (on day): 23 day and 19, 19 day and 21, 21 day and 13 day and 20 day and 22 day
[2]
  Binding to Inflamed Brain Endothelium: did not bind
[3]
  antibodies specific for the lectin in sera of treated rats: did not contain
BALB/c and C57B/6 mice; BALB/c, Receptor + 2.5 μg Lectin s.c.
  Mice Showing Clinical Signs of Neuromuscular Dysfunction (%): 18%
BALB/c and C57B/6 mice; BALB/c, Receptor + 12 μg Lectin s.c.
  Mice Showing Clinical Signs of Neuromuscular Dysfunction (%): 4%
BALB/c and C57B/6 mice; C57B/6, Receptor + 2.5 μg Lectin s.c.
  Mice Showing Clinical Signs of Neuromuscular Dysfunction (%): 59%
BALB/c and C57B/6 mice; C57B/6, Receptor + 12 μg Lectin s.c.
  Mice Showing Clinical Signs of Neuromuscular Dysfunction (%): 11%
BALB/c and C57B/6 mice; both strains, higher lectin dose levels
  neuromuscular deterioration: markedly slowed
Lewis rats [4]; 1 mg/kg i.v. days −3 to −1, then 1 mg/kg/d i.v. until rejection
  Graft survival, individual animals: 9 days and 10 days
Lewis rats [4]; 1 mg/kg i.v. days −3 to −1, then 2 mg/kg/d i.v. until rejection
  Graft survival, individual animals: 9 days and 10 days and 11 days
Lewis rats [4]; 1 mg/kg
  Onset of Rejection: 9.8 ± .8 days
Lewis rats [4]; 2 mg/kg
  Onset of Rejection: 9.8 ± .8 days
Lewis rats [4]; 1-2 mg/kg/d i.v.
  toxicity as might be manifested by weight loss: no noticeable toxicity
Lewis rats [4]; both lectin dose groups combined, five recipients
  mean graft survival (SD): 9.8 ± 0.84 days
[5]
  Binding of T-cells to thymic epithelial cells: appreciably bound
